Series [1] deals with T1, Mitogen-activated protein kinase kinase kinase 5 (Homo sapiens) (UniProt Q99683).
T1 sequence (whole entry): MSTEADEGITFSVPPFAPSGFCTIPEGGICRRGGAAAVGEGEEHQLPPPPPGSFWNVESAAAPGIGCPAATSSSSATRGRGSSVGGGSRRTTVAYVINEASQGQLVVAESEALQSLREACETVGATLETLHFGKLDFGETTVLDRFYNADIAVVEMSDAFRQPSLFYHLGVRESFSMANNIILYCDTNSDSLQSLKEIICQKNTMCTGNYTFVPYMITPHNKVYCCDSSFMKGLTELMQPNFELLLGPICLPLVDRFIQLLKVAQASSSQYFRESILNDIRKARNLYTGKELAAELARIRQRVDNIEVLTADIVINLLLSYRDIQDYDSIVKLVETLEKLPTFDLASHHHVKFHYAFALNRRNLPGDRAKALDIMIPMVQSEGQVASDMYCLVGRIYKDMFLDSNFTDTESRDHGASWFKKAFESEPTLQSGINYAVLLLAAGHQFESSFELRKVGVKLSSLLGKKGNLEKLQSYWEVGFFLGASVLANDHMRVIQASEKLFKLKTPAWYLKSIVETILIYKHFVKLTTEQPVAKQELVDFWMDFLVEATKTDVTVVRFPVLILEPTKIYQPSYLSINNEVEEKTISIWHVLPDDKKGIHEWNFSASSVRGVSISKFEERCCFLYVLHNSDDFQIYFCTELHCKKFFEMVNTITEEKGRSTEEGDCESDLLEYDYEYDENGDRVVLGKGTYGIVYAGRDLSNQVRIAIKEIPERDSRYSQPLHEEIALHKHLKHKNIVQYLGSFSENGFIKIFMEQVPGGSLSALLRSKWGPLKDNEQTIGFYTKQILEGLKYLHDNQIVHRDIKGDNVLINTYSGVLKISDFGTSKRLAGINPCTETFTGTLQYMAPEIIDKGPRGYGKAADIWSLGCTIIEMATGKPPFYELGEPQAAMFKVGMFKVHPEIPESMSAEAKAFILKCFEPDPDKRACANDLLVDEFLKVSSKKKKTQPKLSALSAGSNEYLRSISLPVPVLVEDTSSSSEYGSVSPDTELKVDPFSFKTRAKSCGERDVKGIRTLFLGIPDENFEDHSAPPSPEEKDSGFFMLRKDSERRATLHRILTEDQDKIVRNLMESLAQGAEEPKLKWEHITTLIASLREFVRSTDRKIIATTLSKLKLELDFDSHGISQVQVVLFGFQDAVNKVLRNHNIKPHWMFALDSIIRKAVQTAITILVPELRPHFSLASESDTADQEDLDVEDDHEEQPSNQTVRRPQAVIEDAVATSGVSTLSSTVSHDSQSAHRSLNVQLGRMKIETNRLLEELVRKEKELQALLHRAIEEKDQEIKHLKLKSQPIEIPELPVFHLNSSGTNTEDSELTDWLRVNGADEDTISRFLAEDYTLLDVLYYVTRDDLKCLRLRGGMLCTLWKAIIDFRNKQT
In words: Inhibition of ASK1 assessed as residual activity of enzyme at 10 uM.

The target of series [2] is T2, Serine/threonine-protein kinase TAO1 (Homo sapiens) (UniProt Q7L7X3).
T2 sequence (whole entry): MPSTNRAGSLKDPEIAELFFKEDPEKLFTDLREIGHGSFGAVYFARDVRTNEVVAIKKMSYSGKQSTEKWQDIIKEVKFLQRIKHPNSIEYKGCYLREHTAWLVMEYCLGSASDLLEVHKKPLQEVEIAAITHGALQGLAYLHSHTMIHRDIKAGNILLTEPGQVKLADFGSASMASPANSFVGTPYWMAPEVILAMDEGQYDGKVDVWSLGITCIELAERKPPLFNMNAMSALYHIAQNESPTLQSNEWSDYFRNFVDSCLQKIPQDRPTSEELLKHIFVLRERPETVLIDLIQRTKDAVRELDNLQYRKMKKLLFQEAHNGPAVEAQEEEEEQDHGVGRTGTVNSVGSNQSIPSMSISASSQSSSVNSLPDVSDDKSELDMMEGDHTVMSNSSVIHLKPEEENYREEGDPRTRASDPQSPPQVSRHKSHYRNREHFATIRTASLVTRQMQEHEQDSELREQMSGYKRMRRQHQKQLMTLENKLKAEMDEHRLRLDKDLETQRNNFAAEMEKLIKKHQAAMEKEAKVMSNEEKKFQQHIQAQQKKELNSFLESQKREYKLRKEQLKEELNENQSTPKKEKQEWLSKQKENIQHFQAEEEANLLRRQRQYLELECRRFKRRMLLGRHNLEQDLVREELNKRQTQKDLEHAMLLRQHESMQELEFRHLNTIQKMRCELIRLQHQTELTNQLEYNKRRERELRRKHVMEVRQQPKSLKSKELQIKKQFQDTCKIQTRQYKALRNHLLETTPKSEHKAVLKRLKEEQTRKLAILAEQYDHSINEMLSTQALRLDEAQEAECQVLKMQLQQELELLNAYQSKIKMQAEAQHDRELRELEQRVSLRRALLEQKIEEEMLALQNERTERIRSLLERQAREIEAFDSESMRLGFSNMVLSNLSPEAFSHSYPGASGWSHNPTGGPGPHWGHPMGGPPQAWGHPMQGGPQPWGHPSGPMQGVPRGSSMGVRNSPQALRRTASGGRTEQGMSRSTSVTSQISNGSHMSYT
In words: Inhibition of TAO1 assessed as residual activity of enzyme at 25 uM.

Series [3] has as its target Ribosomal protein S6 kinase beta-1 (Homo sapiens) (UniProt P23443). The series is described as follows: Inhibition of p70S6K assessed as residual activity of enzyme at 25 uM.
For series [4], the target named is T2, Serine/threonine-protein kinase TAO1 (Homo sapiens). The series is described as follows: Inhibition of TAO1 assessed as residual activity of enzyme at 10 uM.
Series [5] relates to Leucine-rich repeat serine/threonine-protein kinase 2 (Homo sapiens), Q5S007 [G2019S]. In words: Inhibition of purified N-terminal GST-tagged LRRK2 G2019S mutant assessed as residual activity of enzyme at 25 uM.
For series [6], the target named is Casein kinase I isoform alpha (Homo sapiens) (UniProt P48729). The series is described as follows: Inhibition of CK1 assessed as residual activity of enzyme at 10 uM.
For series [7], the target named is Ribosomal protein S6 kinase beta-1 (Homo sapiens) (UniProt P23443). The series is described as follows: Inhibition of p70S6K assessed as residual activity of enzyme at 10 uM.
Series [8] is described as follows: Neurotoxicity in rat primary cortical neurons assessed as cell survival at 100 uM after 24 hrs by MTT assay. In kind it is toxicity, cell-based. The conditions noted are these: cerebral cortex neuron.

This note sets out measurements from ChEMBL document CHEMBL1770059, “Identification of chemicals to inhibit the kinase activity of leucine-rich repeat kinase 2 (LRRK2), a Parkinson's disease-associated protein” (Bioorg Med Chem Lett, 2011).

Ribosomal protein S6 kinase beta-1 (Homo sapiens), sequence (P23443 whole entry, looked up): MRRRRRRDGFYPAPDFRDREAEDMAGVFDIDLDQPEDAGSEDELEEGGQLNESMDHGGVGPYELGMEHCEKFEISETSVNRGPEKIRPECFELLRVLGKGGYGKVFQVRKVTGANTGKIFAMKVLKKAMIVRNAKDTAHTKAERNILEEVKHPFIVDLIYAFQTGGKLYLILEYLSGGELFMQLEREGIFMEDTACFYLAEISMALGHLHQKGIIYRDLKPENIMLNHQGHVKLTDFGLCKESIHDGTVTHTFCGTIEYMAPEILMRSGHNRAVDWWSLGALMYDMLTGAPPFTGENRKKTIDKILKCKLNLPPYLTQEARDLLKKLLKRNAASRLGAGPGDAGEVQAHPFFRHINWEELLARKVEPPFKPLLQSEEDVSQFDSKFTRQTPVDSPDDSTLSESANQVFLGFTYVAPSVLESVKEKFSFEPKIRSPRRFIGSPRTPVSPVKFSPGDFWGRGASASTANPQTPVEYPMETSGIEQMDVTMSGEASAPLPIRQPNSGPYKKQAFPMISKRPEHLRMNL
Leucine-rich repeat serine/threonine-protein kinase 2 (Homo sapiens), Q5S007 [G2019S], sequence (Q5S007 whole entry G2019S, canonical isoform): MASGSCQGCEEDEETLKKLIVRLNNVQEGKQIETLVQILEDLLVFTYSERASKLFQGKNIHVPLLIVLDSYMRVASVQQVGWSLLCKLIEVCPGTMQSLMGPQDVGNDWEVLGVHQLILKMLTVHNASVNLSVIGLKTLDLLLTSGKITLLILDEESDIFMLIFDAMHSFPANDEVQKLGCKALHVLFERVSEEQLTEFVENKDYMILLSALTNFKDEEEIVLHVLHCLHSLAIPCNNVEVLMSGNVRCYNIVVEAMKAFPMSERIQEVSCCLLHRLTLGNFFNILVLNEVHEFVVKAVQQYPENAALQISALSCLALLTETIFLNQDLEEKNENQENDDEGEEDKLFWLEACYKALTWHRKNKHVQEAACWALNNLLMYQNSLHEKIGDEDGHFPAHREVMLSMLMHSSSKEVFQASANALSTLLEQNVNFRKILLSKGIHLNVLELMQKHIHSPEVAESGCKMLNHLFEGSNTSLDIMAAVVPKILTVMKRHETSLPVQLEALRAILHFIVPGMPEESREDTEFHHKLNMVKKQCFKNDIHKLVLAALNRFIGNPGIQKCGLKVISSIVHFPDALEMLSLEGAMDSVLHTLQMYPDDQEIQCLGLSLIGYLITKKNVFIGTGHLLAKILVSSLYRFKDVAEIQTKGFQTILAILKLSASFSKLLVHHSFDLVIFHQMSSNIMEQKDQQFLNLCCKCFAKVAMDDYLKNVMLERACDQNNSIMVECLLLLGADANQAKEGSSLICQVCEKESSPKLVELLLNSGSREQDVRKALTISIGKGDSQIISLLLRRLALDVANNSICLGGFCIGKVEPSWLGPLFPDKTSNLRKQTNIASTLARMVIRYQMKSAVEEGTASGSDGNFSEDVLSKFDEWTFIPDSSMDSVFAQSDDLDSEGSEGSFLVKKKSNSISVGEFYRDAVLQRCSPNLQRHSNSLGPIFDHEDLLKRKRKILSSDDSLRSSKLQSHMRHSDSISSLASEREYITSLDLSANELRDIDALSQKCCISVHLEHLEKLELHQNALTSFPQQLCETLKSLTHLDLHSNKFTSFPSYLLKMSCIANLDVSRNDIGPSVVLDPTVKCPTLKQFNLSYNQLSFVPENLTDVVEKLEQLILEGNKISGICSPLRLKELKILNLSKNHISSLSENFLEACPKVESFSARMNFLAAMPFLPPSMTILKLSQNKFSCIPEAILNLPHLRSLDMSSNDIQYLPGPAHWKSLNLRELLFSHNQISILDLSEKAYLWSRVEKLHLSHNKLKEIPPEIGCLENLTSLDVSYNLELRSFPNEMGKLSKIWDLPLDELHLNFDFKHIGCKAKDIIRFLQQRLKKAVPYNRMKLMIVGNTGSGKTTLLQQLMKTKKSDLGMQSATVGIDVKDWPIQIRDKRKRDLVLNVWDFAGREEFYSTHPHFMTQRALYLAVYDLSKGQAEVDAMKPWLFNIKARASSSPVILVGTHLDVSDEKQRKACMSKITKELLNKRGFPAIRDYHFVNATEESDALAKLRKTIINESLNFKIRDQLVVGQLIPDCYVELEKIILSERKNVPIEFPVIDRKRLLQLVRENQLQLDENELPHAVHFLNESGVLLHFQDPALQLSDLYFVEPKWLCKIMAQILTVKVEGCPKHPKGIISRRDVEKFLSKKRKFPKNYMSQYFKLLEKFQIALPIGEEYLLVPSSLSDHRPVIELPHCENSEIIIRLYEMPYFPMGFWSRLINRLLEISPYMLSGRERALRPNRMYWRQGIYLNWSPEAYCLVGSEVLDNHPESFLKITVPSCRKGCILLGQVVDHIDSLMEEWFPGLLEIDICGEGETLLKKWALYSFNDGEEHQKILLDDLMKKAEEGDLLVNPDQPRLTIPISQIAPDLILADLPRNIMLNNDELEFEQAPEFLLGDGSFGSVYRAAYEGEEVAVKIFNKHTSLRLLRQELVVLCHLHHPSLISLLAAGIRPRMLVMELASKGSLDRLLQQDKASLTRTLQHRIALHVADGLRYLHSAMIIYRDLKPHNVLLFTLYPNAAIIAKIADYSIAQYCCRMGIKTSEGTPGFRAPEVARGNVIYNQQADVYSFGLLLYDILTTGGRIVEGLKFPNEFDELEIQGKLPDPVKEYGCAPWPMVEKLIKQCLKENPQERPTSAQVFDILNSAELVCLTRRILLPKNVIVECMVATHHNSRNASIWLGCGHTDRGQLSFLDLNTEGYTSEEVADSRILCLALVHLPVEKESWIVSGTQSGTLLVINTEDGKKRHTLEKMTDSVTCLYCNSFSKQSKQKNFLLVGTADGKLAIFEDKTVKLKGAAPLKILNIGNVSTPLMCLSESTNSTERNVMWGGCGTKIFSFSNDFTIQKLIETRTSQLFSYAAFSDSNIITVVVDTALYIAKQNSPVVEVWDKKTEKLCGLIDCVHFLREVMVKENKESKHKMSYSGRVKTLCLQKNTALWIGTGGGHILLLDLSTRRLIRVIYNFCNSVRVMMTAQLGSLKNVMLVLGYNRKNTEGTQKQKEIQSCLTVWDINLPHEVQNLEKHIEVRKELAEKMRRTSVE
Casein kinase I isoform alpha (Homo sapiens), sequence (P48729 2-337 limits assumed): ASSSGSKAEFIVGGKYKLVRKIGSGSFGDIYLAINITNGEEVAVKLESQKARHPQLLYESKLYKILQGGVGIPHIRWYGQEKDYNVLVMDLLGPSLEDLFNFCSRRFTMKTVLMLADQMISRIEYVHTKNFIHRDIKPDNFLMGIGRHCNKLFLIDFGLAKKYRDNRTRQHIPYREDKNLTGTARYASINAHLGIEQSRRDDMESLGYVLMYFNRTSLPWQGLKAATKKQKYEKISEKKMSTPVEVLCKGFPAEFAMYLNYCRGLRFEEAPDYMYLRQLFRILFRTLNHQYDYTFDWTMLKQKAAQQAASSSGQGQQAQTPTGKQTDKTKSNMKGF

With `Cc1cc(N/N=C/c2ccncc2)nc2ccccc12`, the Activity in series [1] is 94%; in series [2] it was 84%; in series [3], 50%; in series [4] it was 88%; in series [5], 11%; in series [6] it was 77%. The Activity was 67% in series [7] and “Toxic” in series [8].
